This note sets out measurements from patent publication US8969309B2, “Crystal of peptide substance as well as the preparation method and use thereof” (Shanghai Techwell Biopharmaceutical Co., Ltd., priority 2010, dated 2015).

The structures appear in SMILES notation.

The data set is described as follows: Purity and stability test (content by HPLC after sealed storage). It is filed as physicochemical. The settings on record: for Content of the intial sample: HPLC content before storage; for Content of the sample stored at 25° C. for 14 days: sealed storage at 25° C. for 14 days, content by HPLC. How it is done:
The purity was detected by high performance liquid chromatography (HPLC) method. HPLC method was performed according to the method reported in Journal of Industrial Microbiology & Biotechnology (2001), 26, 216-221; the normal phase HPLC is employed:
silica gel column: 4.6 mm*250 mm;
Mobile phase: ethyl acetate:methanol:water=84:9:7 (V/V/V);
Detection wavelength: 278 nm.
The purity and stability of samples prepared in the comparative example and examples 1-4 were compared. The method is described as follows:
The samples from comparative-example, example 1, example 2, example 3 and example 4 were obtained separately and kept at 25° C. for 14 days in sealed storage. And then the contents of the samples were tested by HPLC.

With `CCC(C)CC(C)CCCCCCCCC(=O)NC1CC(O)[C@@H](O)NC(=O)[C@H]2[C@@H](O)CCN2C(=O)[C@H](C(O)CC(N)=O)NC(=O)C(C(O)C(O)c2ccc(O)cc2)NC(=O)[C@@H]2C[C@@H](O)CN2C(=O)[C@H](C(C)O)NC1=O` (some centres unmarked) [Comparative example, reference compound], the Content of the intial sample amounted to 97.7% and the Content of the sample stored at 25° C. for 14 days was 95.6%.

Compound `CCC(C)CC(C)CCCCCCCCC(=O)NC1CC(O)[C@@H](O)NC(=O)[C@H]2[C@@H](O)CCN2C(=O)[C@H](C(O)CC(N)=O)NC(=O)C(C(O)C(O)c2ccc(O)cc2)NC(=O)[C@@H]2C[C@@H](O)CN2C(=O)[C@H](C(C)O)NC1=O` (some centres unmarked) [Example 1] gave a Content of the intial sample of 96.1% and a Content of the sample stored at 25° C. for 14 days of 93.5%.

For `CCC(C)CC(C)CCCCCCCCC(=O)NC1CC(O)[C@@H](O)NC(=O)[C@H]2[C@@H](O)CCN2C(=O)[C@H](C(O)CC(N)=O)NC(=O)C(C(O)C(O)c2ccc(O)cc2)NC(=O)[C@@H]2C[C@@H](O)CN2C(=O)[C@H](C(C)O)NC1=O` (some centres unmarked) [Example 2], the Content of the intial sample came to 99.8% and the Content of the sample stored at 25° C. for 14 days was 99.6%.

As to `CCC(C)CC(C)CCCCCCCCC(=O)NC1CC(O)[C@@H](O)NC(=O)[C@H]2[C@@H](O)CCN2C(=O)[C@H](C(O)CC(N)=O)NC(=O)C(C(O)C(O)c2ccc(O)cc2)NC(=O)[C@@H]2C[C@@H](O)CN2C(=O)[C@H](C(C)O)NC1=O` (some centres unmarked) [Example 3], the Content of the intial sample was 99.8% and the Content of the sample stored at 25° C. for 14 days was found to be 99.5%.

Compound `CCC(C)CC(C)CCCCCCCCC(=O)NC1CC(O)[C@@H](O)NC(=O)[C@H]2[C@@H](O)CCN2C(=O)[C@H](C(O)CC(N)=O)NC(=O)C(C(O)C(O)c2ccc(O)cc2)NC(=O)[C@@H]2C[C@@H](O)CN2C(=O)[C@H](C(C)O)NC1=O` (some centres unmarked) [Example 4] yielded a Content of the intial sample of 99.8% and a Content of the sample stored at 25° C. for 14 days of 99.5%.

For `CCC(C)CC(C)CCCCCCCCC(=O)NC1CC(O)[C@@H](O)NC(=O)[C@H]2[C@@H](O)CCN2C(=O)[C@H](C(O)CC(N)=O)NC(=O)C(C(O)C(O)c2ccc(O)cc2)NC(=O)[C@@H]2C[C@@H](O)CN2C(=O)[C@H](C(C)O)NC1=O` (some centres unmarked) [crystal B of the compound of formula I], the “stability compared with crystal A and amorphous powder” value (25° C., 14 days, sealed storage) is recorded as “better stability”.
